Laboratory results reported in US11155517B2, “4-substituted phenylamine derivatives and their use to protect crops by fighting undesired phytopathogenic micoorganisms” (PI INDUSTRIES LTD., priority 2016, dated 2021).

Key:
Rhizoctonia solani = Rhizoctonia solani (rice sheath blight/potato black scurf) in vitro test, radial growth on Potato Dextrose Agar; type: cell-based; details: 168 h, 300 ppm, seven days, 25° C., read-out: % control compared to the untreated check (radial growth)
Alternaria solani [1] = test: Alternaria solani (early blight of tomato/potato) in vitro test, radial growth on Potato Dextrose Agar; type: cell-based; details: 168 h, 300 ppm, seven days, 25° C., read-out: % control compared to the untreated check (radial growth)
Alternaria solani [2] = test: Greenhouse Alternaria solani test in tomato, preventive; type: in vivo; details: 24 h, tomato plants sprayed one day before inoculation, read-out: Efficacy (% control), disease severity vs untreated check
Protocol: Compounds were dissolved in 2% DMSO/Acetone & then mixed with water to calibrated spray volume of 50 ml. This 50 ml spray solution was poured into the spray bottles for further applications. To test the preventive activity of compounds, healthy young Tomato plants raised in the greenhouse were sprayed with active compound preparation at the stated application rates inside the spray cabinets using hallowcone nozzles. One day after treatment, the plants were inoculated with spore suspension (2% Malt) containing 0.24×10^6 Alternaria solani inoculum. The inoculated plants were then kept in greenhouse chamber at 22-24° C. temperature and 90-95% relative humidity for disease expression. […] Efficacy (% control) of the compounds was calculated by comparing the disease rating in the treatment with untreated control. The sprayed plants were also assessed for compound's phytotoxic effects by recording symptoms like necrosis, chlorosis and stunting.

Botrytis cinerea = Botrytis cinerea (gray mold) in vitro test, radial growth on Potato Dextrose Agar; type: cell-based; details: 168 h, 300 ppm, seven days, 22° C., read-out: % (control) compared to the untreated check (radial growth)
Fusarium culmorum [3] = test: Fusarium culmorum (foot rot of cereals) in vitro test, radial growth on Potato Dextrose Agar; type: cell-based; details: Fusarium culmorum, 168 h, read-out: % control compared to the untreated check (radial growth)
Pyricularia oryzae = test: microbe, parasite or virus in culture; type: cell-based; details: 168 h, read-out: % control compared to the untreated check (radial growth)
Fusarium culmorum [4] = test: Greenhouse Fusarium culmorum test in wheat, preventive; type: in vivo; details: 24 h, read-out: Efficacy (% control), disease severity vs untreated check
Method in brief: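 Young greenhouse wheat sprayed preventively at stated rates (compounds in 2% DMSO/acetone, diluted in water), inoculated one day later with 2×10^6 Fusarium culmorum spores in 2% malt, held at 24 °C, 80-90% RH. Disease severity (0-100%) rated 3, 7, 10 and 15 days after application; % control versus untreated, phytotoxicity also recorded.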

Septoria lycopersici = Septoria lycopersici (leaf spot of tomato) in vitro test, radial growth on Potato Dextrose Agar; type: cell-based; details: 168 h, seven days, 25° C., read-out: % control compared to the untreated check (radial growth)
Colletotrichum capsici = Colletotrichum capsici (anthracnose) in vitro test, radial growth on Potato Dextrose Agar; type: cell-based; details: Colletotrichum truncatum, 168 h; 300 ppm; seven days, 25° C.; read-out: % control compared to the untreated check (radial growth)
Botrytis cinera = test: Greenhouse Botrytis cinera test in tomato, preventive; type: in vivo; details: 24 h, plants sprayed one day before inoculation, read-out: Efficacy (% control), disease severity vs untreated check

SMILES | inhibition of growth at 300 ppm (Rhizoctonia solani) [%] | inhibition of growth at 300 ppm (Alternaria solani [1]) [%] | pest or weed control at 500 ppm (Alternaria solani [2]) [%] | inhibition of growth at 300 ppm (Botrytis cinerea) [%] | inhibition of growth at 300 ppm (Fusarium culmorum [3]) [%] | inhibition of growth at 300 ppm (Pyricularia oryzae) [%] | pest or weed control at 500 ppm (Fusarium culmorum [4]) [%] | inhibition of growth at 300 ppm (Septoria lycopersici) [%] | inhibition of growth at 300 ppm (Colletotrichum capsici) [%] | pest or weed control at 500 ppm (Botrytis cinera) [%]
CNC=Nc1cc(C)c(Cc2cccc(Br)c2F)cc1C [Compound 41, N′-(4-(3-bromo-2-fluorobenzyl)-2,5-dimethylphenyl)-N-methylformimidamide] | > 80 | > 75 | 70 to 100 | > 80 | 75 | > 75 | 70 to 100 | > 70 | > 80 | –
CCN(C)C=Nc1cc(C)c(C(OC)c2ccccc2)cc1C (centres unmarked) [Compound 2, N-ethyl-N′-(4-(methoxy(phenyl)methyl)-2,5-dimethylphenyl)-N-methylformimidamide] | > 80 | > 75 | 70 to 100 | – | – | > 75 | – | – | – | 70 to 100
CCN(C)C=Nc1cc(C)c(Cc2cccc(Br)c2F)cc1C [Compound 27, N′-(4-(3-bromo-2-fluorobenzyl)-2,5-dimethylphenyl)-N-ethyl-N-methylformimidamide] | > 80 | > 75 | 70 to 100 | > 80 | 75 | > 75 | – | > 70 | > 80 | 70 to 100
CCN(C)C=Nc1cc(C)c(Cc2cc(Cl)ccc2Cl)cc1C [Compound 160, N′-(4-(2,5-dichlorobenzyl)-2,5-dimethylphenyl)-N-ethyl-N-methylformimidamide] | > 80 | > 75 | 70 to 100 | > 80 | 75 | > 75 | 70 to 100 | > 70 | > 80 | –
CCN(C)C=Nc1cc(C)c(Cc2cccc([N+](=O)[O-])c2)cc1Cl [Compound 71, N′-(2-chloro-5-methyl-4-(3-nitrobenzyl)phenyl)-N-ethyl-N-methylformimidamide] | > 80 | > 75 | 70 to 100 | > 80 | 75 | > 75 | – | > 70 | > 80 | –
CCN(C)C=Nc1cc(C)c(/C(=N\C)c2ccccc2)cc1C [Compound 31, N′-(2,5-dimethyl-4-((Z)-(methylimino)(phenyl)methyl)phenyl)-N-ethyl-N-methylformimidamide] | > 80 | > 75 | 70 to 100 | – | 75 | > 75 | – | > 70 | – | 70 to 100
Cc1cc(N=CN2CCCCC2)c(C)cc1Cc1ccc(F)c(Cl)c1 [Compound 35, N-(4-(3-chloro-4-fluorobenzyl)-2,5-dimethylphenyl)-1-(piperidin-1-yl)methanimine] | > 80 | > 75 | 70 to 100 | > 80 | – | > 75 | 70 to 100 | > 70 | > 80 | –
CCN(C)C=Nc1cc(C)c(Cc2cc(F)ccc2Cl)cc1Cl [Compound 178, N′-(2-chloro-4-(2-chloro-5-fluorobenzyl)-5-methylphenyl)-N-ethyl-N-methylformimidamide] | > 80 | > 75 | 70 to 100 | > 80 | 75 | > 75 | – | > 70 | > 80 | –
CCN(C)C=Nc1cc(C)c(Cc2ccccc2S(C)(=O)=O)cc1C [Compound 25, N′-(2,5-dimethyl-4-(2-(methylsulfonyl)benzyl)phenyl)-N-ethyl-N-methylformimidamide] | > 80 | > 75 | 70 to 100 | – | – | > 75 | – | > 70 | > 80 | 70 to 100
CCN(C)C=Nc1cc(C)c(Cc2ccc(C)cc2)cc1C [Compound 9, N′-(2,5-dimethyl-4-(4-methylbenzyl)phenyl)-N-ethyl-N-methylformimidamide] | > 80 | > 75 | 70 to 100 | > 80 | 75 | > 75 | – | > 70 | > 80 | 70 to 100
CCN(C)C=Nc1cc(C)c(Cc2ccc(F)cc2F)cc1Cl [Compound 180, N′-(2-chloro-4-(2,4-difluorobenzyl)-5-methylphenyl)-N-ethyl-N-methylformimidamide] | > 80 | > 75 | 70 to 100 | > 80 | 75 | > 75 | – | – | > 80 | 70 to 100
CCN(C)C=Nc1cc(C)c(Cc2ccc(Cl)cc2Cl)cc1Cl [Compound 179, N′-(2-chloro-4-(2,4-dichlorobenzyl)-5-methylphenyl)-N-ethyl-N-methylformimidamide] | > 80 | > 75 | 70 to 100 | > 80 | 75 | > 75 | – | – | > 80 | 70 to 100
CCN(C)C=Nc1cc(C)c(Cc2cccc(F)c2)cc1C [Compound 29, N-ethyl-N′-(4-(3-fluorobenzyl)-2,5-dimethylphenyl)-N-methylformimidamide] | > 80 | > 75 | 70 to 100 | > 80 | 75 | > 75 | – | > 70 | > 80 | 70 to 100
CCN(C)C=Nc1cc(C)c(Cc2cc(F)cc(Cl)c2)cc1Cl [Compound 176, N′-(2-chloro-4-(3-chloro-5-fluorobenzyl)-5-methylphenyl)-N-ethyl-N-methylformimidamide] | > 80 | > 75 | 70 to 100 | > 80 | 75 | > 75 | – | > 70 | > 80 | –
CCN(C)C=Nc1cc(C)c(Cc2ccc(F)cc2F)cc1C [Compound 161, N′-(4-(2,4-difluorobenzyl)-2,5-dimethylphenyl)-N-ethyl-N-methylformimidamide] | > 80 | > 75 | 70 to 100 | > 80 | 75 | > 75 | – | > 70 | > 80 | –
Cc1cc(N=CN2CCOCC2)c(Cl)cc1Cc1ccccc1Cl [Compound 40, N-(2-chloro-4-(2-chlorobenzyl)-5-methylphenyl)-1-morpholinomethanimine] | – | – | 70 to 100 | > 80 | – | – | – | – | – | 70 to 100
CCN(C)C=Nc1cc(F)c(Cc2ccc(C)cc2)cc1C [Compound 175, N-ethyl-N′-(5-fluoro-2-methyl-4-(4-methylbenzyl)phenyl)-N-methylformimidamide] | > 80 | > 75 | 70 to 100 | > 80 | 75 | > 75 | – | > 70 | > 80 | –
